In US5663182A, “Antipsychotic method” (priority 1996, dated 1997):
Where a name gives a salt, the structure may show the parent alone.

How the values were obtained:
[1] = tested on: psychiatric patients suffering from schizophrenia; conditions: cited from earlier work
muscarinic receptors = assay: 3H-oxotremorine-M binding assay; conditions: 3 nM 3H-oxotremorine-M, rat cerebral cortical membranes, 15 min 25° C.; read-out: Inhibition of 3H-Oxo
Protocol: Each compound was tested to determine the affinity of the compound for the muscarinic receptors using the following procedure.
For each in vitro binding, male Sprague-Dawley (Harlan Sprague-Dawley, Indianapolis, Ind.) rats weighing from about 100 to about 150 grams each were sacrificed by decapitation. The brains were quickly removed and the cerebral cortex were dissected from the brain. The cerebral cortex tissue was homogenized in 10 volumes of 0.32 M sucrose and […] about 10 minutes at about 1000 x g. The supernatant was centrifuged at about 12,000 x g for about 10 minutes and the resulting pellet was resuspended in 20 mM tris-Cl, pH 7.4. The resuspended pellet was centrifuged again for about 10 minutes at about 50,000 x g. The resulting homogenate was preincubated for about 10 minutes at about 25° C. and centrifuged again for about 10 minutes at about 50,000 x g. The pellet was resuspended at 1 gram of pellet per 3 ml of buffer and frozen at about -80° C. until used.
The aforementioned homogenates mixture was incubated for about 15 minutes at about 25° C. and then the homogenates were filtered through glass filters (Whatman, GF/C) with vacuum. The filters were washed 3 times with about 2 ml of cold tris-Cl buffer, and placed in scintillation vials containing about 10 ml of scintillation fluid (Ready Protein+, Beckman, Fullerton, Calif.). Radioactivity trapped on the filters was determined by liquid scintillation spectrometry. Nonspecific binding was determined using 1 μM atropine. […] DeLean, A. et al. Am.

Rats = assay: Conditioned avoidance behavior in rats; format: in vivo, rat; conditions: screening dose 3.0 mg/kg s.c. 30 min before session
Description: In a conditioned avoidance test, animals learn to respond during a conditioned stimulus in order to avoid mild shock presentation. A response during the conditioned stimulus is termed an avoidance respone, a response during shock is termed an escape response; a response failure is when the animal fails to respond during either the conditioned stimlus or the shock presentation and is indicative of motor impairment. […] Antipsychotic drugs decrease the percentage of avoidance responses without interfering with the ability of the animal to respond since the animals do emit escape responses. The percentage of response failures is considered a measure of motor impairment.
Rats were required to press a response lever in an experimental chamber in order to avoid or escape foot-shock. Each experimental session consisted of 50 trials. During each trial, the chamber was illuminated and a tone presented for a maximum of 10 sec. A response during the tone immediately terminated the tone and the houselight, ending the trial. In the absence of a response during the tone alone, tone+foot-shock (2.0 mA) was presented for a maximum of 10 sec. A response during shock presentation immediately terminated the shock, the tone and the houselight, ending the trial.
For drug screening, a dose of 3.0 mg/kg was administered s.c. 30 min before the start of the experimental session.

For `Cc1cc2c(s1)Nc1ccc(F)cc1N=C2N1CCN(C)CC1` [flumezapine, 7-fluoro-2-methyl-10-(4-methyl-1-piperazinyl)-4H-thieno[2,3-b][1,5]-benzodiazepine], the “incidence of raised enzyme levels (CPK, SGOT, SGPT) in treated patients” value ([1]; 17 patients treated, clinical trial terminated) is listed as “unacceptably high incidence of raised enzyme levels”.
For `FC(F)(F)CCCSc1nsnc1C1CN2CCCC1C2` (single isomer, unassigned; (-)) [Compound 130, (-)-Exo-6-(3-(4,4,4-trifluoro-1-butylthio)-1,2,5-thiadiazol-4-yl)-1-azabicyclo[3.2.1]octane oxalate], the IC50 (muscarinic receptors) was 1.8 nM and the “Conditioned Avoidance % Avoidance Responses” value (Rats; 3 mg/kg) was 43%.
In the case of `O=C(O)/C=C/C(=O)O.c1csc(CCCSc2nsnc2C2CN3CCC2CC3)c1` (stereo not drawn) [Compound 104, 3-(3-(3-(2-Thienyl)propylthio)-1,2,5-thiadiazol-4-yl)-1-azabicyclo[2.2.2]octane fumarate], the IC50 (muscarinic receptors) is reported as 2.6 nM and the “Conditioned Avoidance % Avoidance Responses” value (Rats) is reported as 24%.
For `CCCSc1nsnc1C1CN2CCCC1C2` (single isomer, unassigned) [Compound 114, (+)-Exo-6-(3-propylthio-1,2,5-thiadiazol-4-yl)-1-azabicyclo[3.2.1]octane (-) D-tartrate], the IC50 (muscarinic receptors) was 0.45 nM and the “Conditioned Avoidance % Avoidance Responses” value (Rats; 3 mg/kg) was 39%.
For `CCOc1nsnc1[C@H]1CN2CCC[C@H]1C2` (relative stereo) [Compound 19, Exo-6-(3-ethoxy-1,2,5-thiadiazol-4-yl)-1-azabicyclo[3.2.1]octane oxalate], the IC50 (muscarinic receptors) was 1.2 nM and the “Conditioned Avoidance % Avoidance Responses” value (Rats) was 73%.
For `c1ccc(OCCSc2nsnc2[C@H]2CN3CCC[C@H]2C3)cc1` (relative stereo) [Compound 133, Exo-6-(3-(2-phenoxyethylthio)-1,2,5-thiadiazol-4-yl)-1-azabicyclo[3.2.1]octane oxalate], the IC50 (muscarinic receptors) was 1.3 nM and the “Conditioned Avoidance % Avoidance Responses” value (Rats) was 1%.
For `O=C(CCCN1CCC(O)(c2ccc(Cl)cc2)CC1)c1ccc(F)cc1` [haloperidol], the extra pyramidal symptoms ([1]; reported for clinical use) is given as “high incidence of extra pyramidal symptoms”.
In the case of `CCCCCCOc1nsnc1C1CN2CCC1CC2.O=C(O)/C=C/C(=O)O` (stereo not drawn) [Compound 11, 3-(3-Hexyloxy-1,2,5-thiadiazol-4-yl)-1-azabicyclo[2.2.2]octane fumarate], the IC50 (muscarinic receptors) is reported as 6 nM and the “Conditioned Avoidance % Avoidance Responses” value (Rats) is reported as 11%.
In the case of `CN1CCN(C2=Nc3cc(Cl)ccc3Nc3ccccc32)CC1` [clozapine], the agranulocytosis ([1]; reported for clinical use) is listed as “cause agranulocytosis in some patients”.
